# Experimental data published in patent US20140220556A1, “Method of Design and Synthesis of a New Drug” (priority 2013, published 2014).
# Legend:
# HeLa cells = test: Effect of Antican on HeLa cells; assay type: cell-based
# Excerpt: In establishing the minimum concentration of Antican that could slow the growth of cells, a comparison was made between the number of surviving cells and the concentration of Antican in the solution.
# [1] = test system: Ehrlich's ascites adenocarcinoma; test: Antitumor activity in Ehrlich's ascites adenocarcinoma; assay type: in vivo, Barbados mice; conditions: experimental animals, n = 10
# Experimental: The antitumor activity of the compositions were studied in models of Ehrlich's ascites carcinoma in young Barbados mice of both sexes with weights between 15-17 g (68 individuals), which were kept on a vivarium diet.
# 45 mice were inoculated from a mouse with adenocarcinoma using an insulin syringe with 0.1 mL ascitic fluid in the region of the liver.
# Ten mice were administered Antican (see Table 8).
# benzidine skin sarcoma = test: Anticancer activity on benzidine skin sarcoma; assay type: in vivo, Barbados mice
# Experimental: Before applying it to the silica gel, 7 mL of a solution of 2% benzidine and 0.9% sodium chloride were added until an opalescent suspension was formed (1 g silica gel for 5 mL NaCl solution). Twenty-five Barbados mice of both sexes with weight of 18-20 g that were kept on a vivarium diet were administered benzidine and phorbol acetate immobilized on silica gel subcutaneously near the neck. After two weeks, 18 animals had developed tumors of different sizes in the form of a small bump on the neck near the silica gel granulomas. Each group of animals was administered the corresponding compound parenterally, at a dose of 100 μg/kg weight, twice a day for two weeks, starting 16 days after administration of the carcinogen.
# [2] = FDA statistics, third stage of clinical tests; cited from earlier work
smiles,measurement,setting,value
CC(=O)O[C@@]12CO[C@@H]1C[C@H](O)[C@@]1(C)C(=O)[C@H](O)C3=C(C)[C@@H](OC(=O)[C@H](O)[C@@H](NC(=O)OC(C)(C)C)c4ccccc4)C[C@@](O)([C@@H](OC(=O)c4ccccc4)[C@H]21)C3(C)C [Taxotere],"Number of Live Cells after Incubation, %",HeLa cells; dose 2 μg/mL,100%
same,"Number of Live Cells after Incubation, ±1000",HeLa cells; dose 2 μg/mL,150000 Millions
same,"Number of Live Cells after Incubation, %",HeLa cells; dose 4 μg/mL,98%
same,"Number of Live Cells after Incubation, ±1000",HeLa cells; dose 4 μg/mL,150000 Millions
same,"Number of Live Cells after Incubation, %",HeLa cells; dose 6 μg/mL,97%
same,"Number of Live Cells after Incubation, ±1000",HeLa cells; dose 6 μg/mL,145000 Millions
same,"Number of Live Cells after Incubation, %",HeLa cells; dose 8 μg/mL,89%
same,"Number of Live Cells after Incubation, ±1000",HeLa cells; dose 8 μg/mL,135000 Millions
same,"Number of Live Cells after Incubation, %",HeLa cells; dose 10 μg/mL,82%
same,"Number of Live Cells after Incubation, ±1000",HeLa cells; dose 10 μg/mL,130000 Millions
same,"Number of Live Cells after Incubation, %",HeLa cells; dose 12 μg/mL,94%
same,"Number of Live Cells after Incubation, ±1000",HeLa cells; dose 12 μg/mL,153000 Millions
same,"Time of Death of Animals after the First Injection, Average Value",[1]; Liposomes +,15 ± 0.5 days
same,"Time of Death of Animals after the First Injection, Average Value",[1]; Liposomes −,14 ± 0.12 days
same,"Weight of Animal, After Treatment","benzidine skin sarcoma; 100 μg/kg parenterally twice a day for two weeks, n = 7",23 ± 1.1 g
same,mice died,"benzidine skin sarcoma; after treatment, n = 7",2
same,"Weight of Animal, Before Treatment","benzidine skin sarcoma; before treatment, n = 7",28 ± 1.2 g
same,Animal Survival,"benzidine skin sarcoma; benzidine skin sarcoma, n = 10",28 ± 1.1 days
CN1CC[C@]23c4c5ccc(O)c4O[C@H]2[C@@H](O)C=C[C@H]3[C@H]1C5 [morphine],average effectiveness,[2],75%
